# Test results published in PMC6485937 (Archives of toxicology, 2016).
# What was measured:
# [1] = tested on: D. japonica cholinesterase (DjChE); experiment: Kinetics of irreversible; type: biochemical, Dugesia japonica; details: for kr (bimolecular rate constant), rates of inhibition by carbamylating agents / kr (bimolecular rate constant), rates of inhibition by OP oxons: 1 mM ATCh, room temperature, mean± 95% confidence intervals; for Inhibition of ATCh or BTCh hydrolysis: 1 mM ATCh or BTCh
# [2] = tested on: D. japonica cholinesterase (DjChE); experiment: Substrate hydrolysis by DjChE in homogenates; type: biochemical, Dugesia japonica; details: mean ± SE of 6 independent experiments
# [3] = tested on: diethylphosphoryl DjChE (OP inhibited D. japonica cholinesterase); experiment: Reactivation of OP inhibited DjChE by oximes or NaF; type: biochemical, Dugesia japonica
# [4] = tested on: human AChE; details: human AChE in vitro; ref Radić et al. 2013; cited from earlier work
# [5] = in mammals; ref Radić et al. 2012; cited from earlier work
compound,measurement,setting,value
"CNC(=O)Oc1cccc2ccccc12 [Carbaryl, carbaryl]","kr (bimolecular rate constant), rates of inhibition by carbamylating agents",[1],0.00064± 0.00008 × 10^5 M^−1 min^−1
"CCOP(=O)(OCC)Oc1ccc([N+](=O)[O-])cc1 [Paraoxon, paraoxon]","kr (bimolecular rate constant), rates of inhibition by OP oxons",[1],1.7± 0.1 × 10^5 M^−1min^−1
"CC(C)NP(=O)(NC(C)C)OP(=O)(NC(C)C)NC(C)C [iso-OMPA, Tetraisopropyl pyrophosphoramide]",Inhibition of ATCh or BTCh hydrolysis,[1]; 5 mM iso-OMPA,only slow inhibition
same,Inhibition of ATCh or BTCh hydrolysis,[1]; incubation with up to 1 mM iso-OMPA,unable to significantly inhibit
"CCCC(=O)SCC[N+](C)(C)C [BTCh, butyrylthiocholine]",Km,[2],59 ± 4 µM
chlorpyrifos oxon,"kr (bimolecular rate constant), rates of inhibition by OP oxons",[1],3.0± 0.3 × 10^5 M^−1min^−1
pyridine-2-aldoxime [2-PAM],mean kobs of reactivation,"[3]; 4 mM 2-PAM, diazinon oxon inhibited DjChE",0.0058 min⁻¹
"CN(C)C(=O)Oc1cccc([N+](C)(C)C)c1 [Neostigmine, neostigmine]","kr (bimolecular rate constant), rates of inhibition by carbamylating agents",[1],1.3±0.2 × 10^5 M^−1 min^−1
"CCOC(=O)CC(SP(=O)(OC)OC)C(=O)OCC (stereo not shown) [Malaoxon, malaoxon]","kr (bimolecular rate constant), rates of inhibition by OP oxons",[1],0.14± 0.01 × 10^5 M^−1min^−1
"COP(=O)(OC)OC=C(Cl)Cl [Dichlorvos, dichlorvos]","kr (bimolecular rate constant), rates of inhibition by OP oxons",[1],9.1± 0.9 × 10^5 M^−1min^−1
"CC(=O)SCC[N+](C)(C)C [ATCh, acetylthiocholine]",Km,[2],123 ± 6 µM
"CCOP(=O)(OCC)Oc1cc(C)nc(C(C)C)n1 [Diazinon oxon, diazinon oxon]","kr (bimolecular rate constant), rates of inhibition by OP oxons",[1],22±2 × 10^5 M^−1min^−1
"[F-].[Na+] [NaF, sodium fluoride]",Reactivation rate of 10 mM NaF relative to 4 mM 2-PAM,[3]; 10 mM NaF vs 4 mM 2-PAM,four times faster
same,mean kobs of reactivation,"[3]; 10 mM NaF, OP inhibited DjChE",0.023 min⁻¹
"CNC(=O)Oc1ccc2c(c1)[C@]1(C)CCN(C)[C@@H]1N2C [Physostigmine, physostigmine]","kr (bimolecular rate constant), rates of inhibition by carbamylating agents",[1],0.32± 0.02 × 10^5 M^−1 min^−1
"CN(C)C(=O)Oc1ccc[n+](C)c1 [Pyridostigmine, pyridostigmine]","kr (bimolecular rate constant), rates of inhibition by carbamylating agents",[1],0.10± 0.01 × 10^5 M^−1 min^−1
O=C(C=NO)NCCN1CCCCCC1 [RS194B],Rate of reactivation relative to equimolar 2-PAM,[4],2.5 times faster
same,Reactivation rate compared with 2-PAM,"[3]; 4 mM oxime, diazinon oxon inhibited DjChE",significantly faster than 2-PAM
same,Crossing of the blood-brain barrier,[5],crosses the blood-brain barrier
